# Test results published in the NIST ThermoML archive (doi:10.1016/j.jct.2016.12.006).
# ± gives the expanded uncertainty stated by the source.
# Experiment: refractive index (Na D-line) (dimensionless)
# Settings: 303.15 K; 101.33 kPa; Liquid; Standard Abbe refractometry
row,refractive index,SMILES
1,1.3701 ± 0.004,CC(=O)OC(C)C [1-methylethyl ethanoate]
2,1.3196 ± 0.004,"OCC(F)(F)C(F)F [2,2,3,3-tetrafluoro-1-propanol]"
3,1.3675 ± 0.004,CCOC(C)=O [ethyl acetate]
